Results from BindingDB's records for doi:10.1021/jm00143a003 (1982).

Target: Spermine synthase (Rattus norvegicus)
Test: Inhibitory activity against spermine synthase

C[S+](C[C@H]1O[C@H](n2cnc3c(N)ncnc32)[C@H](O)[C@@H]1O)C(CCN)CCCCCN (stereo partly specified)
IC50: 80 µM
